Source: patent publication US9113629B2, “4-amino-6-(4-substituted-phenyl)-picolinates and 6-amino-2-(4-substituted-phenyl)-pyrimidine-4-carboxylates and their use as herbicides” (DOW AGROSCIENCES LLC, priority 2013, dated 2015)
Like-named read-outs stand apart in the source and are kept apart here.

What was measured:
[1] = test system: Key Grass and Sedge Weeds as well as Grass Crops; assay: Post-emergent Test II herbicidal activity (Table 6); assay type: in vivo; details: post-emergence, 336 h; for pest or weed control at 70 g/ha: application rate 70 g ai/ha; for pest or weed control at 140 g/ha: application rate 140 g ai/ha
Method in brief: (§1)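 Greenhouse-grown plants at first or second true leaf stage were sprayed post-emergence with compound in acetone/DMSO-based aqueous spray containing crop oil concentrate and surfactant, at 187 L/ha, highest rate plus ½× to 1/16× dilutions. After 14 d, injury was scored visually versus untreated plants, 0 (none) to 100% (complete kill).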

[2] = test system: Key Broadleaf Weed and Crop Species; assay: Post-emergent Test II herbicidal activity (Table 5); assay type: in vivo; details: post-emergence, 336 h, post-emergent, 14 days after application; for pest or weed control at 70 g/ha: 70 g ai/ha
Method in brief: as §1

[3] = CYPES: yellow nutsedge (Cyperus esculentus), read-out: Visual Growth Reduction (%) 14 Days After Application, CYPES
[4] = DIGSA: crabgrass (Digitaria sanguinalis), read-out: Visual Growth Reduction (%) 14 Days After Application, DIGSA
[5] = ECHCG: barnyardgrass (Echinochloa crus-galli), read-out: Visual Growth Reduction (%) 14 Days After Application, ECHCG
[6] = ORYSA: rice (Oryza sativa), read-out: Visual Growth Reduction (%) 14 Days After Application, ORYSA
[7] = SETFA: giant foxtail (Setaria faberi), read-out: Visual Growth Reduction (%) 14 Days After Application, SETFA
[8] = SORVU: grain sorghum (Sorghum vulgare), read-out: Visual Growth Reduction (%) 14 Days After Application, SORVU
[9] = TRZSS (wheat, Triticum aestivum), read-out: Visual Growth Reduction (%) 14 Days After Application, TRZSS
[10] = ZEAMX: maize, corn (Zea mays), read-out: Visual Growth Reduction (%) 14 Days After Application, ZEAMX
[11] = ABUTH: velvetleaf (Abutilon theophrasti), read-out: Visual Growth Reduction (%) 14 Days After Application ABUTH
[12] = ABUTH: velvetleaf (Abutilon theophrasti), 140 g ai/ha, read-out: Visual Growth Reduction (%) 14 Days After Application ABUTH
[13] = AMARE: redroot pigweed (Amaranthus retroflexus), read-out: Visual Growth Reduction (%) 14 Days After Application AMARE
[14] = AMARE: redroot pigweed (Amaranthus retroflexus), 140 g ai/ha, read-out: Visual Growth Reduction (%) 14 Days After Application AMARE
[15] = BRSNN: oilseed-rape, canola (Brassica napus), read-out: Visual Growth Reduction (%) 14 Days After Application BRSNN
[16] = BRSNN: oilseed-rape, canola (Brassica napus), 140 g ai/ha, read-out: Visual Growth Reduction (%) 14 Days After Application BRSNN
[17] = CHEAL: lambsquarters (Chenopodium album), read-out: Visual Growth Reduction (%) 14 Days After Application CHEAL
[18] = CHEAL: lambsquarters (Chenopodium album), 140 g ai/ha, read-out: Visual Growth Reduction (%) 14 Days After Application CHEAL
[19] = EPHHL: wild poinsettia (Euphorbia heterophylla), read-out: Visual Growth Reduction (%) 14 Days After Application EPHHL
[20] = EPHHL: wild poinsettia (Euphorbia heterophylla), 140 g ai/ha, read-out: Visual Growth Reduction (%) 14 Days After Application EPHHL
[21] = HELAN: sunflower (Helianthus annuus), read-out: Visual Growth Reduction (%) 14 Days After Application HELAN
[22] = HELAN: sunflower (Helianthus annuus), 140 g ai/ha, read-out: Visual Growth Reduction (%) 14 Days After Application HELAN
[23] = VIOTR: wild pansy (Viola tricolor), read-out: Visual Growth Reduction (%) 14 Days After Application VIOTR
[24] = VIOTR: wild pansy (Viola tricolor), 140 g ai/ha, read-out: Visual Growth Reduction (%) 14 Days After Application VIOTR

| SMILES | melting point [°C] | pest or weed control at 70 g/ha [1, 3] [%] | pest or weed control at 140 g/ha [1, 3] [%] | pest or weed control at 70 g/ha [1, 4] [%] | pest or weed control at 140 g/ha [1, 4] [%] | pest or weed control at 70 g/ha [1, 5] [%] | pest or weed control at 140 g/ha [1, 5] [%] | pest or weed control at 70 g/ha [1, 6] [%] | pest or weed control at 140 g/ha [1, 6] [%] | pest or weed control at 70 g/ha [1, 7] [%] | pest or weed control at 140 g/ha [1, 7] [%] | pest or weed control at 70 g/ha [1, 8] [%] | pest or weed control at 140 g/ha [1, 8] [%] | pest or weed control at 70 g/ha [1, 9] [%] | pest or weed control at 140 g/ha [1, 9] [%] | pest or weed control at 70 g/ha [1, 10] [%] | pest or weed control at 140 g/ha [1, 10] [%] | pest or weed control at 70 g/ha [2, 11] [%] | pest or weed control at 70 g/ha [2, 13] [%] | pest or weed control at 70 g/ha [2, 15] [%] | further results |
| --- | --- | --- | --- | --- | --- | --- | --- | --- | --- | --- | --- | --- | --- | --- | --- | --- | --- | --- | --- | --- | --- |
| COC(=O)c1nc(-c2cc(F)c(C(F)F)cc2F)c(F)c(N)c1Cl [Compound 176] | 135.2 to 136.9 | 85 to 94 | 95 to 100 | 45 to 59 | 60 to 74 | 85 to 94 | 85 to 94 | 0 to 29 | 0 to 29 | 85 to 94 | 85 to 94 | 60 to 74 | 85 to 94 | 30 to 44 | 45 to 59 | 0 to 29 | 85 to 94 | 95 to 100 | 95 to 100 | 95 to 100 | pest or weed control at 140 g/ha [2, 12]: 95 to 100%; pest or weed control at 140 g/ha [2, 14]: 95 to 100%; pest or weed control at 140 g/ha [2, 16]: 95 to 100%; pest or weed control at 70 g/ha [2, 17]: 85 to 94%; pest or weed control at 140 g/ha [2, 18]: 85 to 94%; pest or weed control at 70 g/ha [2, 19]: 95 to 100%; pest or weed control at 140 g/ha [2, 20]: 95 to 100%; pest or weed control at 70 g/ha [2, 21]: 95 to 100%; pest or weed control at 140 g/ha [2, 22]: 95 to 100%; pest or weed control at 70 g/ha [2, 23]: 30 to 44%; pest or weed control at 140 g/ha [2, 24]: 45 to 59% |
| COC(=O)c1nc(-c2cc(F)c(OC(F)F)cc2F)cc(N)c1Cl [Compound 177] | 107.5 to 110.3 | 45 to 59 | 45 to 59 | 0 to 29 | 0 to 29 | 0 to 29 | 60 to 74 | 0 to 29 | 0 to 29 | 30 to 44 | 45 to 59 | 0 to 29 | 45 to 59 | 30 to 44 | 30 to 44 | 0 to 29 | 0 to 29 | 85 to 94 | 75 to 84 | 30 to 44 | pest or weed control at 140 g/ha [2, 12]: 85 to 94%; pest or weed control at 140 g/ha [2, 14]: 85 to 94%; pest or weed control at 140 g/ha [2, 16]: 75 to 84%; pest or weed control at 70 g/ha [2, 17]: 75 to 84%; pest or weed control at 140 g/ha [2, 18]: 85 to 94%; pest or weed control at 70 g/ha [2, 19]: 95 to 100%; pest or weed control at 140 g/ha [2, 20]: 95 to 100%; pest or weed control at 70 g/ha [2, 21]: 30 to 44%; pest or weed control at 140 g/ha [2, 22]: 0 to 29%; pest or weed control at 70 g/ha [2, 23]: 0 to 29%; pest or weed control at 140 g/ha [2, 24]: 0 to 29% |
| COC(=O)c1nc(-c2cc(F)c(C)cc2F)cc(N)c1Cl [Compound 179] | 137.2 to 138.8 | 0 to 29 | 0 to 29 | 0 to 29 | 0 to 29 | 0 to 29 | 30 to 44 | 0 to 29 | 0 to 29 | 0 to 29 | 0 to 29 | 0 to 29 | 45 to 59 | 0 to 29 | 0 to 29 | 0 to 29 | 0 to 29 | 95 to 100 | 95 to 100 | 30 to 44 | pest or weed control at 140 g/ha ([2]; ABUTH: velvetleaf (Abutilon theophrasti), application rate 140 g ai/ha, read-out: Visual Growth Reduction (%) 14 Days After Application, ABUTH): 95 to 100%; pest or weed control at 140 g/ha ([2]; AMARE: redroot pigweed (Amaranthus retroflexus), application rate 140 g ai/ha, read-out: Visual Growth Reduction (%) 14 Days After Application, AMARE): 95 to 100%; pest or weed control at 140 g/ha ([2]; BRSNN: oilseed-rape, canola (Brassica napus), application rate 140 g ai/ha, read-out: Visual Growth Reduction (%) 14 Days After Application, BRSNN): 45 to 59%; pest or weed control at 70 g/ha [2, 17]: 95 to 100%; pest or weed control at 140 g/ha ([2]; CHEAL: lambsquarters (Chenopodium album), application rate 140 g ai/ha, read-out: Visual Growth Reduction (%) 14 Days After Application, CHEAL): 95 to 100%; pest or weed control at 70 g/ha [2, 19]: 95 to 100%; pest or weed control at 140 g/ha ([2]; EPHHL: wild poinsettia (Euphorbia heterophylla), application rate 140 g ai/ha, read-out: Visual Growth Reduction (%) 14 Days After Application, EPHHL): 95 to 100%; pest or weed control at 70 g/ha [2, 21]: 85 to 94%; pest or weed control at 140 g/ha ([2]; HELAN: sunflower (Helianthus annuus), application rate 140 g ai/ha, read-out: Visual Growth Reduction (%) 14 Days After Application, HELAN): 85 to 94%; pest or weed control at 70 g/ha [2, 23]: 0 to 29%; pest or weed control at 140 g/ha ([2]; VIOTR: wild pansy (Viola tricolor), application rate 140 g ai/ha, read-out: Visual Growth Reduction (%) 14 Days After Application, VIOTR): 0 to 29% |
